Measured values taken from ChEMBL document CHEMBL5653610, “The novel phosphodiesterase 10A inhibitor THPP-1 has antipsychotic-like effects in rat and improves cognition in rat and rhesus monkey” (Neuropharmacology, 2013).
The source made the active and inactive calls. No cut-off for these calls is given here.

Test system: Rattus norvegicus
Experiment: Antipsychotic activity in Wistar Hannover rat assessed as increase in recognition at 0.56 mg/kg, ip dosed 30 mins before identical objects by novel object recognition test
Type: functional, organism-based

`COc1cc2c(cc1OC)C(=O)C(CC1CCN(Cc3ccccc3)CC1)C2` (stereo unspecified) was tested, and the Activity was “Active”.
